Measured values reported in PubChem BioAssay (NCI).
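Five concentrations, 48 hours, 96-well plates. GI50: concentration for 50% inhibition of growth. TGI is the concentration that stops growth completely.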

Assays:
Assay in all cases: inhibition of tumour cell growth, NCI panel, 48 h
HT29 colon = system: HT29 colon
A549 NSCLC = system: A549 NSCLC
SN12C renal = system: SN12C renal
HL-60(TB) leukemia = system: HL-60(TB) leukemia
HOP-62 NSCLC = system: HOP-62 NSCLC
NCI-H522 lung = system: NCI-H522 lung
NCI-H460 lung = system: NCI-H460 lung
SK-MEL-28 melanoma = system: SK-MEL-28 melanoma
SK-MEL-5 melanoma = system: SK-MEL-5 melanoma
A498 renal = system: A498 renal

Structure (SMILES) | GI50 (HT29 colon) [µM] | TGI (HT29 colon) [µM] | GI50 (A549 NSCLC) [µM] | TGI (A549 NSCLC) [µM] | GI50 (SN12C renal) [µM] | TGI (SN12C renal) [µM] | GI50 (HL-60(TB) leukemia) [µM] | TGI (HL-60(TB) leukemia) [µM] | GI50 (HOP-62 NSCLC) [µM] | TGI (HOP-62 NSCLC) [µM] | GI50 (NCI-H522 lung) [µM] | TGI (NCI-H522 lung) [µM] | GI50 (NCI-H460 lung) [µM] | TGI (NCI-H460 lung) [µM] | GI50 (SK-MEL-28 melanoma) [µM] | TGI (SK-MEL-28 melanoma) [µM] | GI50 (SK-MEL-5 melanoma) [µM] | TGI (SK-MEL-5 melanoma) [µM] | GI50 (A498 renal) [µM] | TGI (A498 renal) [µM]
Nc1ccc(Sc2ccc3c4c2cccc4c(=O)n2c4ccccc4nc32)cc1 | 8.55 | 73.2 | 2.17 | 12.9 | 2.61 | 19.7 | 3.71 | 12 | 4.34 | 17.2 | 3.99 | 36.8 | 1.9 | 14.3 | 12.8 | 35.3 | 2.92 | 13.9 | 3.67 | 57.9
S=C1NC2=C(CCOc3c2ccc2ccccc32)C(c2ccc(Cl)cc2)N1 (centres undefined) | 33.5 | > 100 | 45.1 | > 100 | 25.8 | 66 | 32.7 | > 100 | 70.8 | > 100 | 25.1 | > 100 | 30.8 | > 100 | 41.1 | > 100 | 20 | 44.9 | 26.2 | 68
CC(C)N(C(=O)C12C3C4C5C3C1(C(=O)N(C(C)C)C(C)C)C5C42)C(C)C (centres undefined) |  | > 100 |  | > 100 |  | > 100 |  | > 55.6 |  | > 100 |  | > 100 |  | > 100 |  | > 100 |  | > 100 |  | > 100
Clc1ccc2c(NCCNc3nc(Cl)nc4ccccc34)ccnc2c1 | 0.193 | 0.377 | 1.4 | 3.04 | 1.48 | 3.2 | 0.231 | 0.656 | 0.56 | 2.09 | 1.3 | 2.76 | 0.536 | 1.83 | 1.78 | 3.4 | 1.76 | 3.22 | 1.87 | 3.52
N#CSc1cc(-c2nc3ccccc3o2)ccc1N | 37.7 | > 100 | 2.42 | > 53 | 15.8 | 43.1 | 0.195 | 0.552 | 52.7 | > 100 | > 40.9 | > 64.6 | 24 | > 100 | 29.6 | > 100 | 11.1 | 29.2 | 31.2 | > 82.2
CN(C)/C=C/C(=O)c1cccc(C(=O)/C=C/N(C)C)n1 |  | > 100 |  | > 100 |  | > 100 |  | > 100 |  | > 100 |  | > 100 |  | > 100 |  | > 100 |  | > 100 |  | > 100
CCN(CC)c1ccc(/C=C2/NC(=O)NC2=O)cc1 | 2.83 | > 100 | 9.9 | > 100 | 11.1 | > 100 | 4.9 | > 100 | 10 | > 100 | 2.18 | 24.8 | 4.44 | > 100 | 15.9 | > 100 | 3.19 | > 74.9 | 7.44 | > 89.3
Cn1cc(C2=C(c3cn(C)c4cc(Cl)ccc34)C(=O)NC2=O)c2ccccc21 | 0.0928 | > 9.62 | 0.115 | > 25 | 0.145 | > 15.9 | 0.0814 | 0.241 | 0.124 | > 25 | 0.0723 | 0.345 | 0.0961 | > 8.9 | 3.59 | > 25 | 0.102 | 2.39 | 0.0619 | 0.928
c1ccc(-c2nn(-c3ccccc3)[n+](-c3ccccc3-c3ccccc3)n2)cc1 | 0.673 | 18.4 | 1.07 | > 100 | 1.82 | 15.5 | 0.238 | 0.878 | 2.1 | > 42.2 | 0.478 | 8.18 | 1.04 | 8.6 | 2.3 | 27.2 | 0.409 | 2.2 | 1.65 | 9.04
CCn1c(-c2nonc2N)nc2c(C#CC(C)(C)O)ncc(OCC3CCNCC3)c21 | 10.4 | > 25 | 10.7 | > 25 | 9.17 | > 25 | 6.63 | 17.2 | 11.5 | > 25 | 9.07 | > 25 | 18.2 | > 25 | 10 | > 25 | 8.87 | > 21.2 | 0.384 | 12.7
COC(=O)[C@@H](C)C[C@H](Cc1ccccc1)NC(=O)c1csc([C@@H](C[C@H](C(C)C)N(C)C(=O)[C@@H](NC(=O)CN(C)C)C2CC2)OC(C)=O)n1 | 0.013 |  | 0.24 | > 16.5 | 0.0647 | > 16.5 | 0.00272 | 0.0106 | 0.0585 | > 16.5 | 0.0033 | 0.26 | 0.0291 | > 16.5 | 10.2 | > 16.5 | 0.0122 | 0.434 | 0.304 | > 7.5
CCOC(=O)Nc1ccc2nc(Sc3ccc(Cl)cc3)sc2c1 | 0.518 | 13.3 | 6.3 | > 100 | 6.49 | > 100 | 0.815 | 30.1 | 9.43 | > 100 | 2.47 | 35.2 | 1.01 | > 76.9 | 13.5 | > 100 | 1.18 | 5.07 | 1.19 | 26.8
C=CCN1C(=O)C/C(=C2/CCC(=O)N2CC=C)C1=O |  | > 100 |  | > 100 |  | > 100 |  | > 100 |  | > 100 |  | > 100 |  | > 100 |  | > 100 |  | > 100 |  | > 100
